Tests used:
[1] = test system: S. aureus internalized in human primary osteoblast-like cells; assay: Effect against internalized bacteria; assay type: cell-based, Staphylococcus aureus; conditions: CM with 1% FCS, n = 7
Experimental: Human primary osteoblast-like cells were cultivated in 24-well plates with cultivation medium until they reached a minimum confluence of 80%. For the experiment, cells were washed and S. aureus (ATCC 29213) in cultivation medium added (~2 × 10^7 cfu/ml). After an incubation of 45 minutes, extracellular bacteria were killed using 200 µg/ml gentamicin dissolved in CM with 10% FCS, without P/S. After 1 hour incubation, gentamicin solution was removed, cells washed three times and AMP2 (33 and 67 µg/ml) in CM with only 1% FCS + no P/S added for 4 and 24 hours. As reference, 7.5 µg/ml rifampicin was used. All incubation steps were done in an incubator with 37 °C, 95% humidity and 5% CO2. For determination of the internalized bacteria, cells were lysed and the supernatant plated on CA plates. Experiment were done with n = 7.

planktonic S. aureus = assay: MIC by isothermal microcalorimetry, planktonic bacteria; assay type: cell-based, Staphylococcus aureus; conditions: all three tested bouillons (MH++, MH+, MH−), heat flow 24 hours, n = 3
Experimental: Mueller-Hinton II bouillon with adjusted cations (MH^++; BBL, Germany), Mueller-Hinton bouillon with low cations (MH^+; with 3-4 mg/l Ca^2+ and 5-6 mg/l Mg^2+; Oxoid, Germany) and Mueller-Hinton bouillon without cations (MH^-; Merck, Germany). AMP2 concentrations of 2-33 μg/ml were tested with the three different bouillons and gentamicin concentrations of 0.125-2 μg/ml were analyzed with MH^++. Staphylococcus aureus (ATCC 29213, 300 μl with 10^5 cfu/ml) was added to each microcalorimetry glass ampoule (Waters; […] The ampoules were hermetically sealed and heat flow (W) was measured for 24 hours in the calorimeter TAM III (TA Instruments, USA). […] ROBU […], Germany) in MH^++ bouillon at 37 °C in an aerobe atmosphere for 24 hours. […] Beads were washed again and added to the glass ampoule with fresh MH^++ bouillon. The total heat (J) was measured for 48 hours in the calorimeter. A concentration, which inhibits minimum 90% of biofilm, can be defined as the minimal biofilm inhibitory concentration (MICB). All samples were tested with n = 6.

S. aureus (ATCC 29213) = assay: Zone of inhibition test of PDLLA-coated titanium wires; assay type: cell-based, Staphylococcus aureus; conditions: 10, 20, 30% w/w in poly(D,L-lactide) coating, n = 3
Experimental: Titanium wires (diameter 1 mm, Synthes, USA) were coated with Poly(D,L-lactide) (PDLLA, Boehringer Ingelheim, Germany) and incorporated AMP2 at three different concentrations: 10% w/w, 20% w/w, or 30% w/w. Gentamicin/PDLLA (10% w/w) or PDLLA coated wires served as control. Briefly, 100 mg PDLLA was solved in 1.5 ml ethyl acetate and the wires were coated in a dipping procedure. Details of the coating were described previously. Three nails of each group were placed on Mueller-Hinton agar plates plated with S. aureus (ATCC 29213) and the zone of inhibition (ZOI) was quantified after 1, 3, 7, and 14 days using ImageJ software.

S. epidermidis biofilms = assay: FISH of biofilm grown on polyurethane waver; assay type: cell-based, Staphylococcus epidermidis; conditions: n = 10 pictures
Experimental: Fluorescence in situ hybridization (FISH) was used to visualize the effect of the AMP2 on a biofilm. S. epidermidis (PIA 8400) biofilm was grown on 5 × 8 mm polyurethane (PU) waver (Epurex Films, Germany) in the incubator at 37 °C for 72 hours under aerobic conditions. After biofilm formation, medium was replaced by MH^++ medium containing different concentrations of the AMP2 (4 or 8 µg/ml) or phosphate buffered saline as control. After further 24 hours of incubation on a rotation shaker, waver were removed, fixed and embedded in methylmethacrylate (Technovit 8100, Kulzer, Germany) and sectioned as described elsewhere. To visualize the biofilm, samples were stained with nucleic acid stain DAPI and the Cy3-labeled Staphylococcus-specific FISH-probe STAPHY (5′[…]3′, biomers, Germany) as published, [52]. A nonsense probe NON338 labeled in Cy5 was used to exclude unspecific probe binding. After incubation in a dark, humid chamber for 2 hours at 50 °C, the slides were rinsed with sterile water, dried, and mounted using Vectashield mounting medium (Vector Laboratories, Burlingame, CA). Image analysis was done using an epifluorescence microscope (Axioplan 2; Carl Zeiss, Jena, Germany) equipped with narrow band filter sets (AHF Analysentechnik, Germany). Image acquisition was performed with an AxioCam MRm (Zeiss, Germany) making use of the AxioVision 4.4 software. Digital image analysis was performed with the daime software. Per group 10 pictures were randomly chosen and analyzed.

S. aureus = assay: Effect of FCS on AMP2 activity; assay type: cell-based, Staphylococcus aureus; conditions: for bacterial growth: then 3 h with S. aureus, mean ± StD, n = 3
Experimental: In a further experiment the possible effect of serum on AMP activity was investigated. AMP2 (67 µg/ml) was preincubated for 2 hours at 37 °C with different concentrations of FCS and then added to S. aureus.
In addition, the influence of fetal calf serum (FCS, containing 17 g/l albumin; Biochrom, Germany) on AMP activity was determined by preincubating 67 µg/ml of the AMP2 with 0–10% FCS at 37 °C for 2 hours followed by incubation with S. aureus for 3 hours. The control group, without AMP, was FCS free (n = 3).

[2] = 4 µg/ml AMP2, 24 h in MH++ on 72 h biofilm

## KRRWRIWLV [AMP2, 9mer cationic antimicrobial peptide … from an optimized peptide library]
[1]; 33 μg/ml, 4 h
  internalized bacteria compared to 0 μg/ml AMP [= 100%]: 39%
[1]; 33 μg/ml, 24 h
  internalized bacteria compared to 0 μg/ml AMP [= 100%]: 3%
[1]; 67 μg/ml, 4 h
  internalized bacteria compared to 0 μg/ml AMP [= 100%]: 16%
[1]; 67 μg/ml, 24 h
  internalized bacteria compared to 0 μg/ml AMP [= 100%]: 0.18%
Planktonic S. aureus
  MIC (calorimetry): 8 µg/mL
S. aureus (ATCC 29213)
  Zone of Inhibition, activity of incorporated peptide: inhibited the growth of S. aureus in a dose dependent manner
S. epidermidis biofilms; [2]
  reduction of FISH-positive (Cy3) area: 86%
  reduction of the biofilm area (DAPI) compared to the untreated group: up to 76%
S. epidermidis biofilms; 8 µg/ml AMP2, 24 h in MH++ on 72 h biofilm
  reduction of FISH-positive (Cy3) area: 90%
S. aureus; AMP2 67 µg/ml preincubated 2 h at 37 °C with 0% FCS
  bacterial growth: 7 ± 9 cfu/ml
S. aureus; AMP2 67 µg/ml preincubated 2 h at 37 °C with 0.1% FCS
  bacterial growth: 37 ± 13 cfu/ml
S. aureus; AMP2 67 µg/ml preincubated 2 h at 37 °C with 1% FCS
  bacterial growth: 553 ± 255 cfu/ml
S. aureus; AMP2 67 µg/ml preincubated 2 h at 37 °C with 10% FCS
  bacterial growth: 2,078 ± 540 cfu/ml
S. aureus; AMP2 67 µg/ml, 10% FCS
  bacterial growth compared to the group without AMP: less than 2%

— publication PMC5431435, “A short artificial antimicrobial peptide shows potential to prevent or treat bone infections” (Scientific Reports, 2017)
